Results: patent US20090018134A1, “Compounds - 945” (AstraZeneca AB, priority 2007, published 2009)

These compounds were tested against T1, mTOR (Homo sapiens, UniProt P42345) (assay: In Vitro mTOR Kinase Assay (Echo), Test (a)(ii)). Details: read-out: mTOR Kinase Assay (Echo).
T1 construct: FLAG; made in house
Assay type: biochemical
In short: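 Inhibition of truncated mTOR (1362-2549, FLAG-tagged, purified from stably transfected HEK293 cells) is measured as reduced AlphaScreen signal from a phospho-T389-recognising antibody bound to the biotinylated peptide product. Kinase incubation lasts 2 hours at room temperature. Potency is given as IC50.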

T1 sequence (P42345 1362-2549): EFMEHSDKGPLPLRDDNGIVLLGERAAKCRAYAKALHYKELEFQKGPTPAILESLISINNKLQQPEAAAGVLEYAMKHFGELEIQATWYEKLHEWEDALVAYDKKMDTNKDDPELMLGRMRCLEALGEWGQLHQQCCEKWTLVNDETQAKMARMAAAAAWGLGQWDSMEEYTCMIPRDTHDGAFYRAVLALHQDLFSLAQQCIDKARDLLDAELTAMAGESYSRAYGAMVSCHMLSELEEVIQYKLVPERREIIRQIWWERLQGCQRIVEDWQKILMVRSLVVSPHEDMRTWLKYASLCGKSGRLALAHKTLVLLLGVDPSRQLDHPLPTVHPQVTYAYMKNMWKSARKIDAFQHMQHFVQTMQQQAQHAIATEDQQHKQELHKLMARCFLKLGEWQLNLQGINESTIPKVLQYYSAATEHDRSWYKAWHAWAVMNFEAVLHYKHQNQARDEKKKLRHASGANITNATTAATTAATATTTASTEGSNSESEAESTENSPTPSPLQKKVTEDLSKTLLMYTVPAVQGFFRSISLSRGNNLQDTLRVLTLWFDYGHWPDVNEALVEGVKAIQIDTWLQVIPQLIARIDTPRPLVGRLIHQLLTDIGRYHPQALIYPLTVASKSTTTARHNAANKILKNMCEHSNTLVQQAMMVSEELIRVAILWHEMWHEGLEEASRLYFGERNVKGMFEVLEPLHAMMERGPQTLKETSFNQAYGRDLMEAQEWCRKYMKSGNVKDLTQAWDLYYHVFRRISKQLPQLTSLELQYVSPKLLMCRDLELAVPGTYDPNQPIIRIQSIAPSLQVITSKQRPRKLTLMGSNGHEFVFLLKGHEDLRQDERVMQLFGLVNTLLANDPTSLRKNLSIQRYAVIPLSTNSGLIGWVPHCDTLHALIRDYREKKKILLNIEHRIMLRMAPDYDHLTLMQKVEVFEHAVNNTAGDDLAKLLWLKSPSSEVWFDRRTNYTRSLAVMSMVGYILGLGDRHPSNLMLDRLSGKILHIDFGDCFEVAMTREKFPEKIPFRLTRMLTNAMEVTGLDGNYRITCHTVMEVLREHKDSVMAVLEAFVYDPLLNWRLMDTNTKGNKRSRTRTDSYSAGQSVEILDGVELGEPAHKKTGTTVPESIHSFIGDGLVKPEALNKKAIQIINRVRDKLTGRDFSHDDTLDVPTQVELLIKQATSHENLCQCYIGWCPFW

| IC50 | SMILES |
| --- | --- |
| 16.5 nM | CCCNC(=O)Nc1ccc(-c2nc(N3CCOC[C@@H]3C)cc(C3(S(=O)(=O)C4CC4)CC3)n2)cc1 [Example 3h, 3-[4-[4-(1-cyclopropylsulfonylcyclopropyl)-6-[(3S)-3-methylmorpholin-4-yl]pyrimidin-2-yl]phenyl]-1-propyl-urea] |
| 0.239 nM | C[C@H]1COCCN1c1cc(C2(S(C)(=O)=O)CCC2)nc(-c2ccc(NC(=O)NCCCO)cc2)n1 [Example 5j, 3-(3-hydroxypropyl)-1-[4-[4-[(3S)-3-methylmorpholin-4-yl]-6-(1-methylsulfonylcyclobutyl)pyrimidin-2-yl]phenyl]urea] |
| 68.5 nM | C[C@H]1COCCN1c1cc(C2(S(C)(=O)=O)CC2)nc(-c2ccc(NC(=O)NCC(C)(C)CO)cc2)n1 [Example 2w, 3-(3-hydroxy-2,2-dimethylpropyl)-1-[4-[4-[(3S)-3-methylmorpholin-4-yl]-6-(1-methylsulfonylcyclopropyl)pyrimidin-2-yl]phenyl]urea] |
| 0.751 nM | C[C@H]1COCCN1c1cc(C2(S(=O)(=O)c3ccc(F)cc3)CC2)nc(-c2ccc(NC(=O)NCCCO)cc2)n1 [Example 8j, 1-[4-[4-[1-(4-fluorophenyl)sulfonylcyclopropyl]-6-[(3S)-3-methylmorpholin-4-yl]pyrimidin-2-yl]phenyl]-3-(3-hydroxypropyl)urea] |
| 2.07 nM | C[C@H]1COCCN1c1cc(C2(S(C)(=O)=O)CC2)nc(-c2ccc(NC(=O)NCCO)cc2)n1 [Example 2i, 3-(2-hydroxyethyl)-1-[4-[4-[(3S)-3-methylmorpholin-4-yl]-6-(1-methylsulfonylcyclopropyl)pyrimidin-2-yl]phenyl]urea] |
| 3.8 nM | CC(C)S(=O)(=O)C1(c2cc(N3CCOC[C@@H]3C)nc(-c3ccc(NC(=O)NC4CC4)cc3)n2)CC1 [Example 7d, 3-cyclopropyl-1-[4-[4-[(3S)-3-methylmorpholin-4-yl]-6-(1-propan-2-ylsulfonylcyclopropyl)pyrimidin-2-yl]phenyl]urea] |
| 193 nM | C[C@H]1COCCN1c1cc(C2(S(=O)(=O)C3CC3)CC2)nc(-c2ccc(NC(=O)NCCN3CCCC3)cc2)n1 [Example 3p, 1-[4-[4-(1-cyclopropylsulfonylcyclopropyl)-6-[(3S)-3-methylmorpholin-4-yl]pyrimidin-2-yl]phenyl]-3-(2-pyrrolidin-1-ylethyl)urea] |

Same assay, conditions: table of enzyme assay Test (a)(ii); read-out: Test (a)(ii) IC50

| IC50 | SMILES |
| --- | --- |
| 15.7 nM | Cn1cc(NC(=O)Nc2ccc(-c3nc(N4CCOCC4)cc(C4(S(=O)(=O)c5ccc(F)cc5)CC4)n3)cc2)cn1 [Example 36aq, 3-[4-[4-[1-(4-fluorophenyl)sulfonylcyclopropyl]-6-morpholin-4-ylpyrimidin-2-yl]phenyl]-1-(1-methylpyrazol-4-yl)urea] |
| 4.41 nM | C[C@H]1COCCN1c1cc(C2(S(=O)(=O)c3ccccn3)CCCC2)nc(-c2ccc(NC(=O)NCCO)cc2)n1 [Example 36ac, 3-(2-hydroxyethyl)-1-[4-[4-[(3S)-3-methylmorpholin-4-yl]-6-(1-pyridin-2-ylsulfonylcyclopentyl)pyrimidin-2-yl]phenyl]urea] |
| 43.5 nM | C[C@H]1COCCN1c1cc(C2(S(=O)(=O)CCCO)CC2)nc(-c2ccc(NC(=O)NC3CCS(=O)(=O)C3)cc2)n1 (stereo partly drawn) [Example 36cr, 3-(1,1-dioxothiolan-3-yl)-1-[4-[4-[1-(3-hydroxypropylsulfonyl)cyclopropyl]-6-[(3S)-3-methylmorpholin-4-yl]pyrimidin-2-yl]phenyl]urea] |
| 2.24 nM | Cc1csc(S(=O)(=O)C2(c3cc(N4CCOC[C@@H]4C)nc(-c4ccc(NC(=O)NC5CCC5)cc4)n3)CC2)n1 [Example 25a, 3-cyclobutyl-1-[4-[4-[(3S)-3-methylmorpholin-4-yl]-6-[1-[(4-methyl-1,3-thiazol-2-yl)sulfonyl]cyclopropyl]pyrimidin-2-yl]phenyl]urea] |
| 0.173 nM | C[C@H]1COCCN1c1cc(C2(S(C)(=O)=O)CCC2)nc(-c2ccc(NC(=O)NCCCO)cc2)n1 [Example 5j, 3-(3-hydroxypropyl)-1-[4-[4-[(3S)-3-methylmorpholin-4-yl]-6-(1-methylsulfonylcyclobutyl)pyrimidin-2-yl]phenyl]urea] |
| 25 nM | C[C@H]1COCCN1c1cc(C2(S(=O)(=O)c3cc(F)cc(F)c3)CCNCC2)nc(-c2ccc(NC(=O)NC3CC3)cc2)n1 [Example 30, 3-Cyclopropyl-1-[4-[4-[4-(3,5-difluorophenyl)sulfonylpiperidin-4-yl]-6-[(3S)-3-methylmorpholin-4-yl]pyrimidin-2-yl]phenyl]urea] |
| 10.6 nM | C[C@H]1COCCN1c1cc(C2(S(=O)(=O)c3ccc(F)cc3F)CC2)nc(-c2ccc(NC(=O)Nc3cnn(C)c3)cc2)n1 [Example 57f, 1-[4-[4-[1-(2,4-difluorophenyl)sulfonylcyclopro-pyl]-6-[(3S)-3-methylmorpholin-4-yl]pyrimidin-2-yl]phenyl]-3-(1-methylpyrazol-4-yl)urea] |
| 5.09 nM | C[C@H]1COCCN1c1cc(C2(S(=O)(=O)c3ccc(C(N)=O)cc3Cl)CC2)nc(-c2ccc(NC(=O)NCCF)cc2)n1 [Example 85c, 3-chloro-4-[1-[2-[4-(2-fluoroethylcarbamoylamino)phenyl]-6-[(3S)-3-methylmorpholin-4-yl]pyrimidin-4-yl]cyclopropyl]sulfonylbenzamide] |
| 6.05 nM | C[C@H]1COCCN1c1cc(C2(S(=O)(=O)C3CCOC3)CC2)nc(-c2ccc(NC(=O)NCCO)cc2)n1 (stereo partly drawn) [Example 94j, 3-(2-hydroxyethyl)-1-[4-[4-[(3S)-3-methylmorpholin-4-yl]-6-[1-(oxolan-3-ylsulfonyl)cyclopropyl]pyrimidin-2-yl]phenyl]urea] |
| 8.08 nM | C[C@H]1COCCN1c1cc(C2(S(=O)(=O)C3CC3)CCOCC2)nc(-c2ccc(NC(=O)NCCO)cc2)n1 [Example 23h, 1-[4-[4-(4-cyclopropylsulfonyloxan-4-yl)-6-[(3S)-3-methylmorpholin-4-yl]pyrimidin-2-yl]phenyl]-3-(2-hydroxyethyl)urea] |
| 4.87 nM | CCS(=O)(=O)C1(c2cc(N3CCOC[C@@H]3C)nc(-c3ccc(NC(=O)NCCO)cc3)n2)CCC1 [Example 87, 1-[4-[4-(1-Ethylsulfonylcyclobutyl)-6-[(3S)-3-methylmorpholin-4-yl]pyrimidin-2-yl]phenyl]-3-(2-hydroxyethyl)urea] |
| 67.4 nM | C[C@H]1COCCN1c1cc(C2(S(=O)(=O)c3ccccn3)CC2)nc(-c2ccc(NC(=O)NCCN(C)C)cc2)n1 [Example 28f, 3-(2-dimethylaminoethyl)-1-[4-[4-[(3S)-3-methylmorpholin-4-yl]-6-(1-pyridin-2-ylsulfonylcyclopropyl)pyrimidin-2-yl]phenyl]urea] |
| 3.88 nM | C[C@H]1COCCN1c1cc(C2(S(C)(=O)=O)CC2)nc(-c2ccc(NC(=O)NCCF)cc2)n1 [Example 64aa, 3-(2-fluoroethyl)-1-[4-[4-[(3S)-3-methylmorpholin-4-yl]-6-(1-methylsulfonylcyclopropyl)pyrimi-din-2-yl]phenyl]urea] |
| 6.7 nM | C[C@H]1COCCN1c1cc(C2(S(=O)(=O)c3ccc(OC(F)F)cc3)CC2)nc(-c2ccc(NC(=O)Nc3cnn(C)c3)cc2)n1 [Example 64d, 1-[4-[4-[1-[4-(difluoromethoxy)phenyl]sulfonyl-cyclopropyl]-6-[(3S)-3-methylmorpholin-4-yl]pyrimidin-2-yl]phenyl]-3-(1-methylpyrazol-4-yl)urea] |
| 8.84 nM | C[C@H]1COCCN1c1cc(C2(S(=O)(=O)c3ccccc3)CC2)nc(-c2ccc(NC(=O)NCC(F)(F)F)cc2)n1 [Example 36ea, 1-[4-[4-[1-(benzenesulfonyl)cyclopropyl]-6-[(3S)-3-methylmorpholin-4-yl]pyrimidin-2-yl]phenyl]-3-(2,2,2-trifluroethyl)urea] |
| 58.4 nM | C[C@H]1COCCN1C(=O)C1(c2cc(N3CCOCC3)nc(-c3ccc(NC(=O)NC4CC4)cc3)n2)CC1 [Example 33a, 3-cyclopropyl-1-[4-[4-[1-[(3S)-3-methylmorpholine-4-carbonyl]cyclopropyl]-6-morpholin-4-ylpyrimidin-2-yl]phenyl]urea] |
| 1.52 nM | C[C@H]1COCCN1c1cc(C2(S(=O)(=O)c3cc(F)cc(F)c3)CC2)nc(-c2ccc(NC(=O)NCCCO)cc2)n1 [Example 19l, 1-[4-[4-[1-(3,5-difluorophenyl)sulfonylcyclopro-pyl]-6-[(3S)-3-methylmorpholin-4-yl]pyrimidin-2-yl]phenyl]-3-(3-hydroxypropyl)urea] |
| 3.42 nM | C[C@H]1COCCN1c1cc(C2(S(=O)(=O)c3ccc(F)cc3)CCC2)nc(-c2ccc(NC(=O)NCCO)cc2)n1 [Example 65b, 1-[4-[4-[1-(4-fluorophenyl)sulfonylcyclobutyl]-6-[(3S)-3-methylmorpholin-4-yl]pyrimidin-2-yl]phenyl]-3-(2-hydroxyethyl)urea] |
| 31.6 nM | C[C@H]1COCCN1c1cc(C2(S(=O)(=O)CCCO)CCC2)nc(-c2ccc(NC(=S)NC3CC3)cc2)n1 [Example 99b, 3-cyclopropyl-1-[4-[4-[1-(3-hydroxypropylsulfonyl)cyclobutyl]-6-[(3S)-3-methylmorpholin-4-yl]pyrimidin-2-yl]phenyl]thiourea] |
| 1.74 nM | Cc1ccc(S(=O)(=O)C2(c3cc(N4CCOC[C@@H]4C)nc(-c4ccc(NC(=O)Nc5cnn(C)c5)cc4)n3)CCC2)cc1 [Example 68a] |
| 1.44 nM | C[C@H]1COCCN1c1cc(C2(S(=O)(=O)c3ccc(Cl)cc3)CC2)nc(-c2ccc(NC(=O)Nc3cnn(C)c3)cc2)n1 [Example 27m, 1-[4-[4-[1-(4-chlorophenyl)sulfonylcyclopropyl]-6-[(3S)-3-methylmorpholin-4-yl]pyrimidin-2-yl]phenyl]-3-(1-methylpyrazol-4-yl)urea] |
| 20.2 nM | CCNC(=O)Nc1ccc(-c2nc(N3CCOC[C@@H]3C)cc(C3(S(=O)(=O)c4ccc(C#N)cc4Cl)CC3)n2)cc1 [Example 85f, 3-[4-[4-[1-(2-chloro-4-cyanophenyl)sulfonylcyclopropyl]-6-[(3S)-3-methylmorpholin-4-yl]pyrimidin-2-yl]phenyl]-1-ethylurea] |
| 1.2 nM | C[C@H]1COCCN1c1cc(C2(S(=O)(=O)c3ccc(F)c(F)c3)CC2)nc(-c2ccc(NC(=O)NCCO)cc2)n1 [Example 64j, 1-[4-[4-[1-(3,4-difluorophenyl)sulfonylcyclopro-pyl]-6-[(3S)-3-methylmorpholin-4-yl]pyrimidin-2-yl]phenyl]-3-(2-hydroxyethyl)urea] |
